Data from patent US12622975B2, “Peptide-conjugated prodrugs” (priority 2019, dated 2026).
≈ marks a conversion by molar mass, not a printed value. Entries after “also recorded” stand apart in the source; their conditions may differ. Read-outs that look alike come from different tables or passages of the source. Numbered stars: 1 amine (or outer) side, 2 acyl side, 3 side chain; on linkers, the order of the positions; unused ones are H or OH. Square brackets hold non-standard residues; d marks the D form. Peptide text beside a SMILES is read from it. * marks the point of attachment. X1 = O=C(CCC(=O)[*:2])OCC(N[*:1])C(O)c1ccc([N+](=O)[O-])cc1; Dichloroacetyl = O=C(C(Cl)Cl)*

Experiments:
HS-5 cells = assay: Cell viability assay (MTT), HS-5; assay type: cell-based, human; conditions: 24 hours; for cytotoxicity of control compounds against HS-5 cells: around MIC values (0.5 μM); for cytotoxicity / cell viability of HS-5 cells: 20 μM
[1] = test system: acrA efflux pump deletion mutant of E. coli; conditions: acrA mutant versus wild-type E. coli
Procedure: (§1) Bacteria culture and inhibitory activity assay: Single esterase (bioH, frsA, ybfF, yfbB, yqiA, yeiG, or ypfH) deletion mutants, bacterial transporter (ydgR, fepA and ompF) deletion mutants and the efflux pump (acrA) deletion mutant were all purchased from Dharmacon Horizon Discovery (Cambridge, United Kingdom). The K12 wild-type E. coli strain (MG1655) was cultured in autoclaved LB medium (25 g/L LB broth/water) in a shaker-incubator overnight to stationary growth phase, and then sub-cultured in the same medium after dilution to OD600 of 0.05. Compounds were added at different concentrations. The mixture of bacteria and compounds were placed (200 μL/well) into 96-well clear flat bottom plates. In all plates, the OD600 was measured before and after a 16 hour incubation at 37° C.
(§2) Several representative peptides conjugating CLsu (e.g., 1c, 1d, 2b and 2c) were chosen to study the effects of conjugated peptides on the uptake of the prodrugs.

[2] = test system: ydgR, fepA, ompF transporter deletion mutants of E. coli; conditions: mutants versus wild-type E. coli
Procedure: as §1, §2

E. coli (K-12) lysate = assay: Hydrolysis assay with E. coli lysate; assay type: in vitro ADME; conditions: for apparent first-order rate constant of hydrolysis: compound 200 μM, E. coli lysate 0.1 U/mL, pH 7.4 PBS, 37° C.
Procedure: (§3) Hydrolysis assay: Wild-type E. coli strains (K12) were harvested by centrifugation and the cell pellets were lysed using a sonic device. After centrifugation, the supernatant was collected and the proteinase inhibitor was added in the E. coli lysate. The concentration of E. coli lysate was normalized by the fluorescence intensity of 5-carboxyfluorescein diacetate (CFDA). Briefly, different concentrations of CES (4 U/mL, 2 U/mL, 1 U/mL, 0.5 U/mL, 0.25 U/mL, 0.125 U/mL, 0.0625 U/mL, 0.03125 U/mL, 0.015625 U/mL and 0 U/mL) and different amount of E. coli lysates were prepared in PBS buffer. Followed by, 25 μM of CFDA was added in and incubated at room temperature for 1 hour. Then the fluorescence was tested to draw a fluorescence-concentration dependent curve for figuring out the concentration of E. coli lysates. Solutions of CLsuGG (200 μM) were prepared in pH 7.4 PBS buffer. CES and E. coli lysate (0.1 U/mL) were added and incubated with above solutions at 37° C. for 24 hours. At different time points, the solution was taken out, extracted with an equal volume of butanol, concentrated to dryness, and resuspended with butanol for HPLC analysis. HPLC was performed with Agilent 1100 Series Liquid Chromatograph equipped with an XTerra C18 reverse phase column and Variable Wavelength Detector. The hydrolyzed mixture resuspended in 1 mL of butanol was injected to HPLC mobile phase (0.1% trifluoroacetic acid, the starting ratio: 10% acetonitrile and 90% water). The system was run at a flow rate of 10 mL/min.
as §3, with “analysis.” for “analysis. HPLC was performed with Agilent 1100 Series Liquid Chromatograph equipped with an XTerra C18 reverse phase column and Variable Wavelength Detector. The hydrolyzed mixture resuspended in 1 mL of butanol was injected to HPLC mobile phase (0.1% trifluoroacetic acid, the starting ratio: 10% acetonitrile and 90% water). The system was run at a flow rate of 10 mL/min.”

[3] = test system: esterase (bioH, yjfP, frsA, ybfF, yfbB, ypfH, yeiG, or yqiA) deletion mutants of E. coli; assay type: cell-based; conditions: single esterase gene deletion
Procedure: as §1, with “(BioH, YjfP, FrsA, YbfF, YfbB, YqiA, YeiG,” for “(bioH, frsA, ybfF, yfbB, yqiA, yeiG,”, “or” for “or ypfH) deletion mutants, bacterial transporter (ydgR, fepA”, “YpfH)” for “ompF)”, “mutants” for “mutants and the efflux pump (acrA) deletion mutant”, “were” for “were all”, “after” for “after a”
as §1

[4] = test system: wild type E. coli strain (K-12); assay: Bacteria culture and inhibitory activity assay (MIC); assay type: cell-based; conditions: for Effect of addition of exogenous PLE on inhibitory efficacy: porcine liver esterase 1 U/mL; for MIC: Escherichia coli
Procedure: Bacteria culture and inhibitory activity assay: Single esterase (BioH, YjfP, FrsA, YbfF, YfbB, YqiA, YeiG, or and YpfH) deletion mutants were purchased from Dharmacon Horizon Discovery (Cambridge, United Kingdom). […] Compounds were added at different concentrations.
Compounds were added at different concentrations.

[5] = Stability in human serum (LC-MS); assay type: in vitro ADME; conditions: 200 μM, 37° C.; for Compounds remaining (%) 0 h / Compounds remaining (%) 2 h / Compounds remaining (%) 24 h: human serum
carboxylesterase (CES) = assay: Hydrolysis assay with exogenous carboxylesterase; assay type: in vitro ADME, porcine; conditions: CES 0.1 U/mL
Source text: Experimental materials and instruments. All the solvents and chemical reagents were used directly as received from the commercial sources without further purification unless otherwise stated. Carboxylesterase (CES) from porcine liver was purchased from Sigma-Aldrich (lyophilized powder, >15 units/mg solid; Unit definition: One unit will hydrolyze 1.0 μmole of ethyl butyrate to butyric acid and ethanol per min at pH 8.0 at 25). CLsuGG, CLsuG, CLsuGGG were purified with Agilent 1100 Series Liquid Chromatography system, equipped with an XTerra C18 RP column and Variable Wavelength detector.
as §3, with “Briefly, different concentrations of CES (4 U/mL, 2 U/mL, 1 U/mL, 0.5 U/mL, 0.25 U/mL, 0.125 U/mL, 0.0625 U/mL, 0.03125 U/mL, 0.015625 U/mL and 0 U/mL) and different amount of E. coli lysates were prepared in PBS buffer. Followed by, 25 μM of CFDA was added in and incubated at room temperature for 1 hour.” left out, “CES and E. coli lysate (0.1 U/mL) were added and incubated with above solutions at 37° C. for 24 hours.” left out

[6] = wild type E. coli (K-12), read-out: MIC
[7] = wild type E. coli (K-12), read-out: MIC (μg/mL)

Q: For `O=C(O)c1cn(C2CC2)c2cc(N3CCNCC3)c(F)cc2c1=O` [ciprofloxacin], which “cytotoxicity of control compounds against HS-5 cells” value (HS-5 cells) is on record?
A: relatively low cytotoxicity

Q: Which results are given for `NCCCCC(NC(=O)C(CCCCN)NC(=O)CCC(=O)OCC(NC(=O)C(Cl)Cl)C(O)c1ccc([N+](=O)[O-])cc1)C(=O)O` (stereo not drawn) [Compound 2b]?
A: reduction of the viabilities of the acrA deletion mutant treated by the conjugates [1]: 20%; effect of deletion of ydgR, fepA, or ompF on treated bacteria [2]: hardly rescues the bacteria; apparent first-order rate constant of hydrolysis (E. coli (K-12) lysate): 0.317 h⁻¹; reduction of antibacterial activity by deletion of the cytoplasmic esterase [3]: about 20%; Effect of addition of exogenous PLE on inhibitory efficacy [4]: hardly changes; MIC (μM) ([4]; wild type E. coli (K-12)): 200 µM (≈ 136 µg/mL); Compounds remaining (%) 0 h [5]: 100%; Compounds remaining (%) 2 h [5]: 52.9%; Compounds remaining (%) 24 h [5]: 0%

Q: What does the source list for `O=C(CCC(=O)OCC(NC(=O)C(Cl)Cl)C(O)c1ccc([N+](=O)[O-])cc1)NCC(=O)NCC(=O)NC(Cc1ccccc1)C(=O)NC(Cc1ccccc1)C(=O)O` (stereo not drawn) [Compound 1o] (Dichloroacetyl-[X1]GGFF-OH; configuration not given here)?
A: MIC (μM) ([4]; wild type E. coli (K-12)): 20 µM (≈ 16.6 µg/mL); Compounds remaining (%) 0 h [5]: 100%; Compounds remaining (%) 2 h [5]: 7.2%; Compounds remaining (%) 24 h [5]: 0%

Q: For `O=C(O)CNC(=O)C(CO)NC(=O)CCC(=O)OCC(NC(=O)C(Cl)Cl)C(O)c1ccc([N+](=O)[O-])cc1` (stereo not drawn) [Compound 1d], which “reduction of the viabilities of the acrA deletion mutant treated by the conjugates” value [1] is on record?
A: 40%

Q: What about the “effect of deletion of ydgR, fepA, or ompF on treated bacteria” value [2] of the same molecule?
A: hardly rescues the bacteria

Q: What about the “apparent first-order rate constant of hydrolysis” value (E. coli (K-12) lysate) of the same molecule?
A: 1.267 h⁻¹

Q: What about the “reduction of antibacterial activity by deletion of the cytoplasmic esterase” value [3] of the same molecule?
A: ~10%

Q: What about the “Effect of addition of exogenous PLE on inhibitory efficacy” value [4] of the same molecule?
A: hardly changes

Q: What about the “MIC (μM)” value ([4]; wild type E. coli (K-12)) of the same molecule?
A: 40 µM (≈ 22.7 µg/mL)

Q: And the “Compounds remaining (%) 0 h” value [5]?
A: 100%

Q: What about the “Compounds remaining (%) 2 h” value [5] of the same molecule?
A: 16.7%

Q: What about the “Compounds remaining (%) 24 h” value [5] of the same molecule?
A: 0%

Q: Which results are given for `O=C(CCC(=O)OCC(NC(=O)C(Cl)Cl)C(O)c1ccc([N+](=O)[O-])cc1)NCC(=O)NC(CO)C(=O)O` (stereo not drawn) [Compound 1c]?
A: reduction of the viabilities of the acrA deletion mutant treated by the conjugates [1]: 30%; effect of deletion of ydgR, fepA, or ompF on treated bacteria [2]: hardly rescues the bacteria; apparent first-order rate constant of hydrolysis (E. coli (K-12) lysate): 3.763 h⁻¹; reduction of antibacterial activity by deletion of the cytoplasmic esterase [3]: about 20%; Effect of addition of exogenous PLE on inhibitory efficacy [4]: hardly changes; MIC (μM) ([4]; wild type E. coli (K-12)): 20 µM (≈ 11.3 µg/mL); Compounds remaining (%) 0 h [5]: 100%; Compounds remaining (%) 2 h [5]: 0%; Compounds remaining (%) 24 h [5]: 0%

Q: With `CC[C@H]1OC(=O)[C@H](C)C(=O)[C@H](C)[C@@H](O[C@@H]2O[C@H](C)C[C@H](N(C)C)[C@H]2O)[C@](C)(OC)C[C@@H](C)C(=O)[C@H](C)[C@H]2N(CCCCn3cnc(-c4cccnc4)c3)C(=O)O[C@]12C` [telithromycin] as the molecule, how does the “cytotoxicity of control compounds against HS-5 cells” value (HS-5 cells) read?
A: relatively low cytotoxicity

Q: With `O=C(O)CCC(=O)OC[C@@H](NC(=O)C(Cl)Cl)[C@H](O)c1ccc([N+](=O)[O-])cc1` [CLsu, chloramphenicol succinate, reference compound] as the molecule, how does the “cytotoxicity / cell viability of HS-5 cells” value (HS-5 cells) read?
A: largely innocuous; also recorded: lower cytotoxicity than CL

Q: What about the fraction hydrolyzed (E. coli (K-12) lysate; 24 hours after addition of E. coli lysate) of the same molecule?
A: less than 20%

Q: And the “hydrolysis with addition of CES” value (carboxylesterase (CES))?
A: hardly undergoes hydrolysis

Q: What about the MIC ([4]; read-out: MIC value before addition of exogenous CES) of the same molecule?
A: 90 µM

Q: And the MIC ([4]; FIG. 3B, with exogenous carboxylesterase (CES), read-out: MIC value after addition of exogenous CES)?
A: 49 µM

Q: What about the MIC [4, 6] of the same molecule?
A: > 200 µM

Q: What about the MIC [4, 7] of the same molecule?
A: > 84.6 µg/mL

Q: What about the “MIC (μM)” value ([4]; wild type E. coli (K-12)) of the same molecule?
A: >200 µM

Q: And the “MIC (μg/mL)” value ([4]; wild type E. coli (K-12))?
A: >84.6 µg/mL

Q: And the “conversion in human serum” value ([5]; after 24 hours)?
A: less than 15%

Q: And the “Compounds remaining (%) 0 h” value [5]?
A: 100%

Q: And the “Compounds remaining (%) 2 h” value [5]?
A: 96.2%

Q: And the “Compounds remaining (%) 24 h” value [5]?
A: 87.0%

Q: For `NCCCCC(NC(=O)C(CCCCN)NC(=O)CCC(=O)OCC(NC(=O)C(Cl)Cl)C(O)c1ccc([N+](=O)[O-])cc1)C(=O)O` (stereo not drawn) [Compound 2c], which “reduction of the viabilities of the acrA deletion mutant treated by the conjugates” value [1] is on record?
A: 50%

Q: And the “effect of deletion of ydgR, fepA, or ompF on treated bacteria” value [2]?
A: hardly rescues the bacteria

Q: What about the “apparent first-order rate constant of hydrolysis” value (E. coli (K-12) lysate) of the same molecule?
A: 0.310 h⁻¹

Q: And the “reduction of antibacterial activity by deletion of the cytoplasmic esterase” value [3]?
A: about 20%

Q: And the “Effect of addition of exogenous PLE on inhibitory efficacy” value [4]?
A: hardly changes

Q: And the “MIC (μM)” value ([4]; wild type E. coli (K-12))?
A: 200 µM (≈ 136 µg/mL)

Q: And the “Compounds remaining (%) 0 h” value [5]?
A: 100%

Q: And the “Compounds remaining (%) 2 h” value [5]?
A: 49.2%

Q: What about the “Compounds remaining (%) 24 h” value [5] of the same molecule?
A: 0%

Q: For `O=C(CCC(=O)OCC(NC(=O)C(Cl)Cl)C(O)c1ccc([N+](=O)[O-])cc1)NCC(=O)NCC(=O)NC(Cc1ccccc1)C(=O)O` (stereo not drawn) [Compound 1k], which “MIC (μM)” value ([4]; wild type E. coli (K-12)) is on record?
A: 20 µM (≈ 13.7 µg/mL)

Q: What about the “Compounds remaining (%) 0 h” value [5] of the same molecule?
A: 100%

Q: What about the “Compounds remaining (%) 2 h” value [5] of the same molecule?
A: 0%

Q: And the “Compounds remaining (%) 24 h” value [5]?
A: 0%

Q: Which “MIC (μM)” value ([4]; wild type E. coli (K-12)) does the source give for `NCCCCC(NC(=O)CNC(=O)CCC(=O)OCC(NC(=O)C(Cl)Cl)C(O)c1ccc([N+](=O)[O-])cc1)C(=O)O` (stereo not drawn) [Compound 2f] here?
A: 20 µM (≈ 12.2 µg/mL)

Q: And the “Compounds remaining (%) 0 h” value [5]?
A: 100%

Q: And the “Compounds remaining (%) 2 h” value [5]?
A: 0%

Q: And the “Compounds remaining (%) 24 h” value [5]?
A: 0%

Q: With `O=C(N[C@H](CO)[C@H](O)c1ccc([N+](=O)[O-])cc1)C(Cl)Cl` [CL, chloramphenicol, reference compound] as the molecule, how does the “cytotoxicity / cell viability of HS-5 cells” value (HS-5 cells) read?
A: reduced the viability

Q: And the MIC [4, 6]?
A: 20 µM

Q: And the MIC [4, 7]?
A: 6.5 µg/mL
